Measured values reported in patent US10995087B2, “Crystal form of URAT1 inhibitor, and preparation method therefor” (MEDSHINE DISCOVERY INC., priority 2017, dated 2021).
In brackets after ≈: the same amount, converted by molar mass. Like-named read-outs stand apart in the source and are kept apart here.

Legend:
[1] = molecular target: T1, uric acid transporter URAT1 (Homo sapiens, UniProt Q96S37); assay: Uptake cell inhibition experiment: URAT1-mediated 14C-uric acid uptake in HEK293A-URAT1 cells; format: cell-based
T1 construct: expressed in transfected cells; host or cells: HEK293A, stably overexpressing URAT1; the empty vector control is HEK293A-pcDNA3.1
T1 sequence (Q96S37 1-553): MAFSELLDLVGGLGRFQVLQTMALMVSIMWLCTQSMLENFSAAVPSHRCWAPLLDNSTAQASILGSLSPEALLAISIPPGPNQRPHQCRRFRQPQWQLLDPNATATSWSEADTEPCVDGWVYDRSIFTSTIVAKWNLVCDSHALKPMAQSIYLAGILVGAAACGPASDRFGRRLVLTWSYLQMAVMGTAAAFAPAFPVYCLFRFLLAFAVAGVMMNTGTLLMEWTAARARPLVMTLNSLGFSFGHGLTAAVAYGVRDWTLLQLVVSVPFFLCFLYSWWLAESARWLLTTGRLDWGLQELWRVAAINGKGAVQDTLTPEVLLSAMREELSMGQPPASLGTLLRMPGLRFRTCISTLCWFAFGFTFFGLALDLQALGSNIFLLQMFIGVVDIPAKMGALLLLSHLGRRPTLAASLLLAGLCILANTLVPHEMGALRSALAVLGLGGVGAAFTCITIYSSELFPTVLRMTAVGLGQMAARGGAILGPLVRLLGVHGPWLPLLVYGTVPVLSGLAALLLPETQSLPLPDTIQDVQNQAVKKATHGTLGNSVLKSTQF
Experimental: 1) DMSO was used as the solvent of a 200-fold working solution, the storing solution was diluted to a 200-fold working solution at each administration concentration.
2) Hanks balanced salt solution (without Cl^−) was used as the solvent for the 2-fold working solution of transport protein URAT1, and then 200-fold working solution in 1) was diluted by 100 times to obtain a 2-fold working solution at each administration concentration. […]
First, the culture medium in the culture plate was removed, and it was washed once with Hanks buffer salt solution (without Cl^−). […] The cell lysate was taken into a scintillation vial, and 3 mL of Aquasol-2 scintillation liquid was added, and the radioactive intensity in the sample was measured by using Tri-Carb 2910TR liquid scintillation instrument. […]
Three repeats (i.e. n=3) were set for each administration concentration. Mean±standard error (SD) was calculated using statistical formulas in Microsoft® Excel 2010 software.
According to the inhibitory rate (IR) for each transporter at each administration concentration, IC50 value, the effect of the compound on the transport activity of the drug transporter was calculated through Prism5.0 in combination with the Forecast function in Microsoft® Excel 2010 software.

[2] = Plasma pharmacokinetics in male and female SD rats after single intravenous and intragastric administration; format: in vivo; conditions: rat; for clearance: read-out: plasma clearance rate; for Vd: read-out: steady state apparent volume of distribution (Vdss); for bioavailability: PO 4.0 mg/kg vs IV 2.0 mg/kg; for Cmax: read-out: peak concentration (Cmax); for Tmax: read-out: peak time Tmax
Source text: Experimental purpose: Plasma pharmacokinetics of male and female SD rats after single intravenous injection and intragastric administration as well as repeated intragastric administration for 8 days for the compound of formula (I).
1. In this experiment, 12 SD rats, half males and half females, were provided by Beijing Vital River Laboratory Animal Technologies Co., Ltd., and were divided into 2 groups according to the similarity of their body weights, each group had 3 females and 3 males. The details of the administration protocol and blood collection protocol were shown in Table 5 and Table 6, respectively.
All animals fasted every other night before the first day of administration and resumed to be fed 4 hours after the administration.
Note: DMSO means dimethyl sulfoxide; HP-β-CD means hydroxypropyl-β-cyclodextrin; MC means methyl cellulose;
IV means intravenous administration; PO means intragastric administration.
Sample Collection and Analysis Methods
0.15 mL of blood samples from experimental animals were collected by jugular vein puncture, and immediately transferred to labeled centrifuge tubes containing K2-EDTA (0.5 M), and the plasma was separated by centrifugation within 30 minutes (centrifugation condition: 3000 g, 4° C., 15 minutes). Plasma concentrations were measured using a validated LC/MS/MS analysis method; plasma concentrations were processed using a non-compartment model of WinNonlin™ Version 6.3 (Pharsight, Mountain View, Calif.) pharmacokinetics software, and the pharmacokinetic parameters were calculated using the linear logarithmic trapezoid method.

[3] = Solubility test of crystal form A in 9 vehicles (HPLC); format: physicochemical; conditions: for Solubility (4 hrs) / Solubility (24 hrs) / solubility at 4 h / solubility at 24 h: 37° C.; for Solubility (4 hrs) / solubility at 4 h: stirring 4 hrs; for Solubility (24 hrs) / solubility at 24 h: stirring 24 hrs; for solubility at 4 h / solubility at 24 h: thermodynamic from solid
Experimental: 1. Preparation of diluent and mobile phase
Diluent: 300 mL of pure water and 100 mL of pure acetonitrile were accurately measured, and mixed in a 1 L glass bottle, ultrasonically degassed for 10 minutes for use.
Mobile phase A: 0.1% phosphoric acid aqueous solution
For example: 2.0 mL of phosphoric acid was added into 2000 mL of water, and the mixture was ultrasounded for 10 minutes, mixed evenly, and naturally cooled to room temperature, as mobile phase A.
Mobile phase B: acetonitrile.
2. Preparation of the control solution (using crystal form A per se as the control sample)
5 mg of crystal form A was accurately weighed and placed in a sample bottle, and 10 mL of diluent was added, and the mixture was ultrasounded for 5 minutes, naturally cooled to room temperature, mixed evenly, and labeled as working control solution STD-1.
5 mg of crystal form A was accurately weighed and placed in a sample bottle, and 10 mL of diluent was added, and the mixture was ultrasounded for 5 minutes, naturally cooled to room temperature, mixed evenly, and labeled as working control solution STD-2.
3. Preparation of linear solution
The aforementioned working control solution STD-1 was successively diluted by 1 time, 10 times, 100 times, 1000 times and 2000 times, and was labeled as linear solutions L1, L2, L3, L4 and L5.
6 mg of crystal form A was accurately weighed respectively and added into 8 mL glass bottle, and then 3 mL of different solvents (0.1N hydrochloric acid solution, 0.01N hydrochloric acid solution, purified water, pH 3.8 buffer solution, pH 4.5 buffer solution, pH 5.5 buffer solution, pH 6.0 buffer solution, pH 7.4 buffer solution, pH 6.8 buffer solution) were accurately added to prepare the suspensions. A stirrer was added to the above suspensions, and the suspensions were fully stirred at 37° C. in dark. After stirring, the solids in the pH 7.4 buffer solution and the pH 6.8 buffer solution were completely dissolved, 6 mg of crystal form A were accurately weighed respectively, and added to the buffer solutions, and stirred fully again to prepare suspensions. After stirring for 4 hours and 24 hours, samples were taken and centrifuged. The solutions were filtered with a filter membrane and their concentrations were measured by HPLC.

[4] = female SD rats, IV single, 2.0 mg/kg
[5] = female SD rats, single intragastric (PO) 4.0 mg/kg
[6] = male SD rats, IV single, 2.0 mg/kg
[7] = male SD rats, single intragastric (PO) 4.0 mg/kg
[8] = aqueous buffer, pH 4.5 buffer solution
[9] = aqueous buffer, pH 5.5 buffer solution
[10] = aqueous buffer, pH 6.0 buffer solution
[11] = aqueous buffer, pH 6.8 buffer solution
[12] = aqueous buffer, pH 7.4 buffer solution

CC(C)(Sc1nnc(Br)n1-c1sc(C2CC2)c2c1CCC(F)(F)C2)C(=O)O [compound of formula (I)]
IC50 ([1]; HEK293A-URAT1 cells, 2 min administration, n=3, read-out: IC50, inhibition of uptake of 14C-UA mediated by URAT1): 34 nM | Inhibitory effect on URAT1 relative to reference compound lesinurad ([1]; ratio of IC50 values): about 177 times | AUC(0-inf) [2, 4]: 5240 ± 544 ng·h/mL | half-life ([2]; female SD rats, IV single, 2.0 mg/kg, read-out: elimination half-life (T1/2) (converted)): 3.04 ± 1.12 h | clearance [2, 4]: 6.41 ± 0.656 mL/min/kg | Vd [2, 4]: 1.55 ± 0.408 L/kg | bioavailability ([2]; female SD rats): 86% | AUC(0-inf) [2, 5]: 9010 ± 4670 ng·h/mL | half-life ([2]; female SD rats, single intragastric (PO) 4.0 mg/kg, read-out: elimination half-life (T1/2) (converted)): 3.48 ± 0.835 h | Cmax [2, 5]: 2110 ± 1350 ng/mL | Tmax [2, 5]: 0.667 ± 0.289 h | AUC(0-inf) [2, 6]: 3530 ± 723 ng·h/mL | half-life ([2]; male SD rats, IV single, 2.0 mg/kg, read-out: T1/2 (converted)): 2.52 ± 0.671 h | clearance [2, 6]: 9.76 ± 2.29 mL/min/kg | Vd [2, 6]: 1.65 ± 0.44 L/kg | bioavailability ([2]; male SD rats): 35.6% | AUC(0-inf) [2, 7]: 2510 ng·h/mL | half-life ([2]; male SD rats, single intragastric (PO) 4.0 mg/kg, read-out: elimination half-life (T1/2) (converted)): 1.72 h | Cmax [2, 7]: 1130 ± 483 ng/mL | Tmax [2, 7]: 0.417 ± 0.144 h

CC(C)(Sc1nnc(Br)n1-c1sc(C2CC2)c2c1CCC(F)(F)C2)C(=O)O [crystal form A]
Solubility (4 hrs) ([3]; 0.01N HCl): <LOQ | Solubility (24 hrs) ([3]; 0.01N HCl): <LOQ | Solubility (4 hrs) ([3]; 0.1N HCl): <LOQ | Solubility (24 hrs) ([3]; 0.1N HCl): <LOQ | solubility at 4 h [3, 8]: 1 µg/mL (≈ 2.09 µM) | solubility at 24 h [3, 8]: 1 µg/mL (≈ 2.09 µM) | solubility at 4 h [3, 9]: 66 µg/mL (≈ 138 µM) | solubility at 24 h [3, 9]: 66 µg/mL (≈ 138 µM) | solubility at 4 h [3, 10]: 214 µg/mL (≈ 447 µM) | solubility at 24 h [3, 10]: 204 µg/mL (≈ 426 µM) | solubility at 4 h [3, 11]: 1960 µg/mL (≈ 4100 µM) | solubility at 24 h [3, 11]: 1840 µg/mL (≈ 3850 µM) | solubility at 4 h [3, 12]: 3820 µg/mL (≈ 7990 µM) | solubility at 24 h [3, 12]: 4050 µg/mL (≈ 8460 µM) | Solubility in high pH buffer (conclusion) ([3]; high pH buffer): good solubility | Solubility (4 hrs) ([3]; pH 3.8 buffer solution): <LOQ | Solubility (24 hrs) ([3]; pH 3.8 buffer solution): <LOQ | solubility at 4 h ([3]; Purified water): 45 µg/mL (≈ 94.1 µM) | solubility at 24 h ([3]; Purified water): 58 µg/mL (≈ 121 µM)
